In PubChem BioAssay AID1264 (University of Pittsburgh Molecular Library Screening Center, 2008):
“And” between values parts separate entries of the source, which are not always exact repeats. Identical values can stand only once. The source made the active and inactive calls.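 How the source made its calls: active means every replicate of triplicate confirmation testing shows 50% or greater inhibition; inconclusive means one or more replicate tests show below 50% inhibition; inactive means every triplicate test shows below 50% inhibition.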

These compounds were tested against Serine/threonine-protein kinase PLK1 (Homo sapiens) (UniProt P53350) (assay: PLK1 kinase activity inhibitors, confirmation, biochemical, analogue series, repeat of primary screen (AID 1264)). Conditions: recombinant PLK1 kinase, TR-FRET phosphopeptide binding; at 10 µM; active compounds read high.
Chain of Serine/threonine-protein kinase PLK1 (Homo sapiens) (P53350 whole entry, looked up): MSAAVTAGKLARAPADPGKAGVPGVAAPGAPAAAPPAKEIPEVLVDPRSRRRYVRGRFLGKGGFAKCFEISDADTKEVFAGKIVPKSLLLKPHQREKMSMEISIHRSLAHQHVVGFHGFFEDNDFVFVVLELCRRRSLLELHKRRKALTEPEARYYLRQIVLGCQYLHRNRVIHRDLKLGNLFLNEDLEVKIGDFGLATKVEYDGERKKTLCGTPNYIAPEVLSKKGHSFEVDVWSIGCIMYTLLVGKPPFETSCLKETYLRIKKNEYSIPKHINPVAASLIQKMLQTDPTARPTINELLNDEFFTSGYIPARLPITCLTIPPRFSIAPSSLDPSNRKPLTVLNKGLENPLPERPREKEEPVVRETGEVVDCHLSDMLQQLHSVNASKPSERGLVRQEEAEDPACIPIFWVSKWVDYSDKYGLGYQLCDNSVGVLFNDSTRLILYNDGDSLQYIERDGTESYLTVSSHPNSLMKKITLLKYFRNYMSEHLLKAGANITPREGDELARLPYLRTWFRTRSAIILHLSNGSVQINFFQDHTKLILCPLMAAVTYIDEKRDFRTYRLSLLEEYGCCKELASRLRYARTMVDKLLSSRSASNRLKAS

Compound | inhibition
O=C(NCCc1nc(-c2ccccc2Cl)no1)c1ccccc1 | -12.8% (inactive)
CCOC(=O)c1cccc(NC(=O)c2c(N)n(C)c(=O)[nH]c2=O)c1 | -1.45% (inactive)
CCOC(=O)CCCCCNC(=O)c1c(O)[nH]c(=O)[nH]c1=O | -9.36% (inactive)
CCCCOC(=O)c1ccc(NC(=O)c2c(N)n(C)c(=O)[nH]c2=O)cc1 | -5.01% (inactive)
COc1ccc(C2C=C(c3ccccc3)Nc3ncnn32)cc1 (stereo unspecified) | -8.01% (inactive)
CCC(=O)NCCCc1nc(-c2ccccc2)no1 | -3.38% (inactive)
CCC(=O)NCCc1nc(-c2ccccc2)no1 | -12.8% (inactive)
CCOC(=O)c1ccc(NC(=O)c2c(N)n(C)c(=O)n(C)c2=O)cc1 | -20.8% (inactive)
CCOC(=O)c1ccccc1NC(=O)c1ccc(F)cc1F | -4.35% (inactive)
Cn1c(N)c(S(=O)(=O)NCc2ccccc2)c(=O)n(C)c1=O | -15.5% (inactive)
CC(C)(C)C(=O)NCCc1nc(-c2ccccc2)no1 | 0.116% (inactive)
CCOc1ccc(NC(=O)c2c(O)[nH]c(=O)[nH]c2=O)cc1 | 4.03% (inactive)
Cn1c(N)c(C(=O)Nc2ccccc2)c(=O)[nH]c1=O | 8.78% (inactive)
CCCC(=O)NC(C)c1nc(-c2ccc(C)cc2)no1 (stereo unspecified) | -6.32% (inactive)
CCCCOC(=O)c1ccc(NC(=O)c2ccc(F)cc2F)cc1 | -1.8% (inactive)
CC(C)(C)c1ccc(C2=CC(c3ccccc3F)n3ncnc3N2)cc1 (stereo unspecified) | -3.46% (inactive)
CCOC(=O)c1ccccc1NC(=O)c1c(O)[nH]c(=S)[nH]c1=O | 19.1% (inactive)
FC(F)(F)c1ccccc1C1=CC(c2ccccc2)n2ncnc2N1 (stereo unspecified) | -2.08% (inactive)
Cc1ccc(C2=CC(c3ccccc3)n3ncnc3N2)cc1 (stereo unspecified) | -16.9% (inactive)
Cc1cccc(N/N=C/c2c(O)[nH]c(=S)[nH]c2=O)c1 | -7.37% (inactive)
CC(C)C(=O)NCCc1nc(-c2ccc(Cl)cc2)no1 | -14.7% (inactive)

Compound | inhibition
Cc1ccc(NC(=O)c2ccc(F)cc2F)cc1 | 0.531% (inactive)
CCOc1ccc(NC(=O)c2ccc(F)cc2F)cc1 | -2.77% (inactive)
CCOC(=O)c1ccc(NC(=O)c2ccc(F)cc2F)cc1 | 4.42% (inactive)
O=C(Nc1ccccc1)c1c(O)[nH]c(=S)[nH]c1=O | 14.3% (inactive)
CCOC(=O)c1cccc(NC(=O)c2c(NCc3ccccc3)[nH]c(=O)[nH]c2=O)c1 | -25.1% (inactive)
CCOC(=O)c1ccc(NC(=O)c2c(N)n(Cc3ccccc3)c(=O)[nH]c2=O)cc1 | -23.9% (inactive)
Cc1ccc(C2=CC(c3ccc(C)cc3)n3ncnc3N2)cc1 (stereo unspecified) | -1.39% (inactive)
CC(C)C(=O)NCCc1nc(-c2ccccc2)no1 | -10.1% (inactive)
Cc1cc(C)c(C2=CC(c3ccccc3)n3ncnc3N2)cc1C (stereo unspecified) | -3.17% (inactive)
O=C(NCCc1nc(-c2ccccc2Cl)no1)C1CCCCC1 | -35.6% (inactive)
Cn1cccc1C1C=C(c2ccc(C(C)(C)C)cc2)Nc2ncnn21 (stereo unspecified) | -5.07% (inactive)
C/C(=N\NC(=O)c1ccncc1)c1c(O)[nH]c(=O)[nH]c1=O | -1.95% (inactive)
CC1=CC(c2ccccc2)n2ncnc2N1 (stereo unspecified) | 26% (inactive)
O=C(NCCc1nc(-c2ccccc2)no1)c1ccccc1 | -5.02% (inactive)
O=C(Nc1ccccc1)c1c(O)[nH]c(=O)[nH]c1=O | 0.179% (inactive)
C1=C(c2ccccc2)Nc2ncnn2C1 | 12.8% (inactive)
CCOC(=O)c1ccc(NC(=O)c2c(O)[nH]c(=O)[nH]c2=O)cc1 | -4.9% (inactive)
CCCCOC(=O)c1ccc(NC(=O)c2c(O)[nH]c(=O)[nH]c2=O)cc1 | 13.1% (inactive)
COc1ccc(C2C=C(C)Nc3ncnn32)cc1 (stereo unspecified) | 5.53% (inactive)
CC(=O)NCCc1nc(-c2ccc(Cl)cc2)no1 | 0.952% (inactive)
CC(C)C(=O)NCCc1nc(-c2ccccc2Cl)no1 | -5.05% (inactive)

Compound | inhibition
Cc1ccc(C2=CC(c3ccccc3)n3ncnc3N2)c(C)c1 (stereo unspecified) | -6.91% (inactive)
CCOC(=O)c1ccc(NS(=O)(=O)c2c(N)n(C)c(=O)n(C)c2=O)cc1 | -7.36% (inactive)
Cc1cc(=O)n2[nH]cnc2n1 | 19.1% (inactive)
CCOC(=O)c1ccc(NC(=O)c2c(NCc3ccccc3)[nH]c(=O)[nH]c2=O)cc1 | -44% (inactive)
O=C(NCCc1nc(-c2ccccc2)no1)c1ccco1 | -16.1% (inactive)
Cc1ccc(C2C=C(c3ccccc3)Nc3ncnn32)cc1 (stereo unspecified) | -8.59% (inactive)
O=C(Nc1ccccc1)c1ccc(F)cc1F | 24.9% (inactive)
CCOC(=O)c1ccccc1NC(=O)c1c(N)n(C)c(=O)[nH]c1=O | -3.12% (inactive)
CCC1=CC(c2ccccc2)n2ncnc2N1 (stereo unspecified) | 27.4% (inactive)
CCOC(=O)c1cccc(NC(=O)c2ccc(F)cc2F)c1 | -1.61% (inactive)
CCOC(=O)c1ccc(NC(=O)c2c(N)n(C)c(=O)[nH]c2=O)cc1 | -19.2% (inactive)
C1=C(c2ccccc2)Nc2ncnn2C1c1ccccc1 (stereo unspecified) | -5.72% (inactive) and -12.8% (inactive)
CCOC(=O)CCCCCNC(=O)c1ccc(F)cc1F | -1.76% (inactive)
CCOc1ccc(C2=CC(c3ccccc3)n3ncnc3N2)cc1 (stereo unspecified) | -6.38% (inactive)
CC1=CC(c2ccccc2)n2nc(N)nc2N1 (stereo unspecified) | -13.7% (inactive)
CCOC(=O)c1cccc(NC(=O)c2c(O)[nH]c(=O)[nH]c2=O)c1 | -17.6% (inactive)
CCOC(=O)c1ccccc1NC(=O)c1c(O)[nH]c(=O)[nH]c1=O | -7.12% (inactive)
CC(C)(C)c1ccc(C2=CC(c3ccccc3)n3ncnc3N2)cc1 (stereo unspecified) | -7.88% (inactive)
CCOc1ccc(NC(=O)c2c(N)n(C)c(=O)[nH]c2=O)cc1 | -9.99% (inactive)
